Source: US11529343B2, “Compositions and methods for identifying and treating dystonia disorders” (DUKE UNIVERSITY, priority 2015, dated 2022)

Key:
luciferase secretion = assay: C.Luc. Secretion Assay; format: cell-based; settings: orthogonal assays
Description: We tested each shRNA for its ability to rescue a previously described defect in luciferase secretion. Chen, P. et al. (2010) Hum. Mol. Genet. 19, 3502-15; Cao, S. et al. (2010) Dis. Model Mech. 3, 386-96; Barrows, N. J., et al., (2010) J. Biomol. Screen. 15, 735-47.) DYT1 patient data were obtained from 4 independent patient-derived lines and WT data (black bar) from 3 normal healthy control lines. Each line was tested in 5 independent experiments that included 4 technical replicates each (with the exception of SCD data from 3 independent experiments).
(Cao, S. et al. (2010) Dis. Model. Mech. 3, 386-96.) Subsequent testing of additional HIV protease inhibitors supported the activity of this class of compounds and generated favorable structure-activity relationship (SAR) data from which to design improved compounds (Tables 5 and 6). The results with a subset of compounds were also observed in a Luciferase secretion assay (Tables 5 and 6).

pEIF2-alpha = assay: Western blot, phosphorylation of EIF2-alpha in EGFP-ΔE Torsin1a expression assay cell line; format: cell-based, human; settings: increasing concentration
Description: (§1) Cells were harvested in RIPA buffer [150 mM NaCl/50 mM NaH2PO4/2 mM EDTA/1% Triton X-100/0.5% SDS/0.5% deoxycholic acid/50 mM NaF/10 mM Na4P2O7/1 mM Na3VO4/1× phosphatase inhibitor cocktail (Sigma #P5726)/1× cOmplete Mini EDTA-free protease inhibitor cocktail (Roche #04693159001)]. Total protein concentrations were assessed by BCA assay (Thermo Fisher Scientific #23225). Proteins were resolved on 4-15% TGX gels (Bio-Rad #5671085), transferred to nitrocellulose membrane, blocked in TBS-T+5% non-fat dry milk, and probed as indicated. (Primary antibodies employed in the examples of the disclosure are presented in Table 4.) ATF4 expression was normalized to […] expression. N=3 independent control cells lines and 4 independent DYT1 cell lines, 3 replicates each.
(§2) Western blot analyses were conducted to determine the effect of Lopinavir on ATF4, CreP, pEIF2-alpha, and β-actin abundance in EGFP-ΔE Torsin1a expression assay cell lines. […] This down regulation of CreP is in keeping with the HIV protease inhibitor mediated CreP regulation. (See De Gassart et al. PNAS 2015.)

CreP = assay: Western blot, CreP abundance in EGFP-ΔE Torsin1a expression assay cell line; format: cell-based, human; settings: increasing concentration
Description: as §1, §2

ATF4 = assay: Western blot, ATF4 abundance in EGFP-ΔE Torsin1a expression assay cell line; format: cell-based, human; settings: increasing concentration
Description: as §1, §2

[1] = test system: delta-E Torsin1a localization; assay: Delta-E Torsin1a mislocalization assay (% cells with EGFP puncta, high-content imaging); format: cell-based, human
Description: To limit variation in expression levels associated with random integration or transient expression, single copies of either WT or delta-E human TOR1A cDNAs with N-terminal EGFP fusions were inserted at the FRT site in Flp-In™ T-Rex™ 293 cells (Thermo Fisher Scientific #R780-07) via flippase recombinase-mediated cassette exchange according to the manufacturer's recommended protocols.
The cells were maintained at 37° C./5% CO2. All experiments were performed on cells with fewer than 5 passages.
Torsin1a expression was also controlled by tetracycline induction to avoid selective pressure modifying the cellular phenotypes. […] The mutant phenotype was measured as the percentage of cells with one or more EGFP puncta using automated high-content imaging analysis (see infra).
The image analysis algorithm was developed using the Cellomics ArrayScan V CompartmentAnalysisV2 protocol. Hoechst's nuclear staining (Ch1: excitation 350 nm; emission 461 nm) was used for focusing and for cell identification by nuclear size, shape, and intensity. […] Detected cells were gated according to nuclear area, length-to-width ratio, and perimeter-to-area ratio. For the purpose of analysis, cell bodies were defined by a radius of 10 μm from the outer edge of the defined nucleus. Overlapping cells were automatically segmented according to the Cellomics ArrayScanV CompartmentAnalysisV2 object segmentation feature. EGFP fluorescence (Ch2: excitation 488 nm; emission 509 nm) was used for puncta detection. […] Torsin a puncta were identified using the spot detection feature of the Compartmental AnalysisV2 protocol. The percentage of cells containing one or more puncta was used as the primary metric in this assay.
(§3) In order to test this model directly, the delta-E Torsin1a cell line was treated with compounds targeting the eIF2-alpha signaling pathway (FIG. 2). […] The following day, serial drug dilutions were prepared at 2× final concentration in assay media containing 10 μg/mL tetracycline and 30 μL of the drug/tetracycline mixture was added to the appropriate wells, while control wells received 30 μL of assay media alone or assay media+10 μg/mL tetracycline (final tetracycline concentration for all wells except negative controls: 5 μg/mL). Cells were then incubated at 37° C./5% CO^2 for 48 hours and fixed, permeabilized, Hoechst stained, and imaged as described above. The range of the Torsin1a localization effect was normalized to the percentage of cells with puncta in vehicle-treated delta-E cell line as the maximum and that in WT cell line as the minimum (FIG. 2, panels c-h). Cell count and EGFP-Torsin1a expression were normalized to their respective values in the vehicle-treated delta-E cell line as the maximum. All dose response data are the average of 4 independent experiments per dose. Untreated control data used for normalization are the average of 24 independent experiments.

[2] = test system: Flp-In T-REx 293 cells inducibly expressing delta-E Torsin1a; assay: Cytotoxicity (cell count, cellular morphology) in the Torsin1a assay cell line; format: cell-based, human
Description: as §3
Efficacy is calculated as the magnitude of the pathology correction relative to the mutant Torsin1a pathology. For example an efficacy=−100% would be equivalent to the WT TorsinA phenotype, and 0% would be equivalent to the Mutant TorsinA phenotype. CCv2 refers to the dose response Curve Class annotation, and AC refers to Active Concentration.

## Cc1cccc(C)c1OCC(=O)N[C@@H](Cc1ccccc1)[C@@H](O)C[C@H](Cc1ccccc1)NC(=O)[C@H](C(C)C)N1CCCNC1=O [Lopinavir]
Luciferase secretion
  effect on secretory deficits, in words: corrected secretory deficits
pEIF2-alpha
  phosphorylation of EIF2-alpha: increases phosphorylation of EIF2-alpha
CreP
  steady state levels of CreP: down-regulation of steady state levels
CreP; listed as lopinavir
  steady state levels of CreP: decreases CReP abundance
ATF4
  ATF4 abundance: increases phosphorylation of EIF2-alpha and ATF4 abundance in a dose dependent manner
[1]; Homo sapiens, delta-E Torsin1a assay cell line, read-out: ΔE TorsinA Mislocalization Assay Localization Max Efficacy
  Emax: 70%
[1]; dose response, delta-E cell line
  effect on delta-E Torsin1a localization (cells with puncta), in words: corrected TorsinA localization in a dose-dependent fashion
[2]
  Cytotox Efficacy: −69.87%
  Cytotox Max Resp: −55.19%
[2]; curve class per Inglese et al. 2006
  Cytotox CC-v2 (dose response Curve Class): −3
